# Measured values reported in PubChem BioAssay AID192 (DTP/NCI, 2004).
# Where “and” joins values, the source holds several entries; their conditions need not be identical. Identical values can stand only once. Toxic doses and inconclusive results are not listed.
# Test system: BDF1 mice, B16 melanoma ip, median survival T/C
# Assay: NCI In Vivo Anticancer Drug Screen. Data for tumor model B16 Melanoma (intraperitoneal) in B6D2F1 (BDF1) mice
# Conditions: endpoint: median survival time, higher = longer survival
# Experimental: The antitumor activity of compounds was measured in mice bearing transplantable tumors. Survival or tumor size were measured and the results are expressed as the measurement made in the treated group (T) divided by the measurement made in the vehicle treated control group (C). The tumor model used in this assay is B16 Melanoma (intraperitoneal) in B6D2F1 (BDF1) mice
# [1] = dose: 25.0 mg/kg/injection, schedule: Q01DX009 (ip), vehicle: saline
# [2] = dose: 50.0 mg/kg/injection, schedule: Q01DX009 (ip), vehicle: saline
# [3] = dose: 100.0 mg/kg/injection, schedule: Q01DX009 (ip), vehicle: saline
# [4] = dose: 100.0 mg/kg/injection, schedule: Q04DX003 (ip), vehicle: Klucel (hydroxypropylcellulose) (HPC)
# [5] = dose: 200.0 mg/kg/injection, schedule: Q04DX003 (ip), vehicle: Klucel (hydroxypropylcellulose) (HPC)
# [6] = dose: 100.0 mg/kg/injection, schedule: Q01DX009 (ip), vehicle: saline with Tween-80
# [7] = dose: 200.0 mg/kg/injection, schedule: Q01DX009 (ip), vehicle: saline with Tween-80
# [8] = dose: 400.0 mg/kg/injection, schedule: Q01DX009 (ip), vehicle: saline with Tween-80
# [9] = dose: 25.0 mg/kg/injection, schedule: Q01DX009 (ip), vehicle: saline with Tween-80
# [10] = dose: 50.0 mg/kg/injection, schedule: Q01DX009 (ip), vehicle: saline with Tween-80
# [11] = dose: 100.0 mg/kg/injection, schedule: Q01DX009 (ip), vehicle: Klucel (hydroxypropylcellulose) (HPC)
# [12] = dose: 200.0 mg/kg/injection, schedule: Q01DX009 (ip), vehicle: Klucel (hydroxypropylcellulose) (HPC)
# [13] = dose: 12.5 mg/kg/injection, schedule: Q01DX009 (ip), vehicle: Klucel (hydroxypropylcellulose) (HPC)
# [14] = dose: 25.0 mg/kg/injection, schedule: Q01DX009 (ip), vehicle: Klucel (hydroxypropylcellulose) (HPC)
# [15] = dose: 50.0 mg/kg/injection, schedule: Q01DX009 (ip), vehicle: Klucel (hydroxypropylcellulose) (HPC)
# [16] = dose: 150.0 mg/kg/injection, schedule: Q01DX009 (ip), vehicle: Klucel (hydroxypropylcellulose) (HPC)
# [17] = dose: 300.0 mg/kg/injection, schedule: Q01DX009 (ip), vehicle: Klucel (hydroxypropylcellulose) (HPC)
# [18] = dose: 6.25 mg/kg/injection, schedule: Q01DX009 (ip), vehicle: Klucel (hydroxypropylcellulose) (HPC)
# [19] = dose: 400.0 mg/kg/injection, schedule: Q01DX009 (ip), vehicle: Klucel (hydroxypropylcellulose) (HPC)
# [20] = dose: 80.0 mg/kg/injection, schedule: Q01DX009 (ip), vehicle: saline
# [21] = dose: 6.25 mg/kg/injection, schedule: Q01DX009 (ip), vehicle: saline
# [22] = dose: 12.5 mg/kg/injection, schedule: Q01DX009 (ip), vehicle: saline
# [23] = dose: 3.12 mg/kg/injection, schedule: Q01DX009 (ip), vehicle: saline
structure (smiles),measurement,setting,value
CCCCN1CCNCC1,T/C,[1],103 % of control
same,T/C,[2],103 % of control
same,T/C,[3],101 % of control
CCCCC(CC)C1OC(=O)C(C)O1 (configuration not stated),T/C,[4],98 % of control
same,T/C,[5],100 % of control
O=C(Nc1ccccc1Cl)c1ccc([N+](=O)[O-])cc1,T/C,[6],100 % of control
same,T/C,[7],105 % of control
same,T/C,[8],97 % of control
O=Cc1cc2c(cc1Cl)OCO2,T/C,[6],107 % of control
same,T/C,[7],101 % of control
same,T/C,[8],99 % of control
NNC(=O)c1ccccc1O,T/C,[9],100 % of control
same,T/C,[10],95 % of control
same,T/C,[6],95 % of control
CCCCNC(=O)Nc1ccc(CC)cc1,T/C,[11],100 % of control
same,T/C,[12],91 % of control
ClCCCCCCCCCCc1ccccc1,T/C,[13],90 % of control
same,T/C,[14],90 % of control
same,T/C,[15],89 % of control
COC(=O)C(C)CN1CCCCC1 (configuration not stated),T/C,"dose: 50.0 mg/kg/injection, schedule: Q04DX003 (ip), vehicle: saline",111 % of control
same,T/C,"dose: 100.0 mg/kg/injection, schedule: Q04DX003 (ip), vehicle: saline",111 % of control
same,T/C,"dose: 200.0 mg/kg/injection, schedule: Q04DX003 (ip), vehicle: saline",105 % of control
OC(c1ccccc1)(c1c2ccccc2cc2ccccc12)C1CCC1 (configuration not stated),T/C,"dose: 75.0 mg/kg/injection, schedule: Q01DX009 (ip), vehicle: Klucel (hydroxypropylcellulose) (HPC)",100 % of control
same,T/C,[16],102 % of control
same,T/C,[17],91 % of control
ClCc1ccc(Oc2ccc(CCl)cc2)cc1,T/C,[18],101 % of control
same,T/C,[13],101 % of control and 115 % of control
same,T/C,[14],105 % of control
same,T/C,[15],115 % of control and 124 % of control
CCCCNC(=O)Nc1cccc(C)c1C,T/C,[11],88 % of control
same,T/C,[19],94 % of control
CC(CC(C)O)=NCCN=C(C)CC(C)O.[Ni] (configuration not stated),T/C,"dose: 1.5 mg/kg/injection, schedule: Q04DX003 (ip), vehicle: saline with Tween-80",108 % of control
same,T/C,"dose: 2.0 mg/kg/injection, schedule: Q04DX003 (ip), vehicle: saline with Tween-80",100 % of control
same,T/C,"dose: 3.0 mg/kg/injection, schedule: Q04DX003 (ip), vehicle: saline with Tween-80",94 % of control
same,T/C,"dose: 4.5 mg/kg/injection, schedule: Q04DX003 (ip), vehicle: saline with Tween-80",86 % of control
Nc1ccccc1SC1CC(=O)N(c2cccc(Cl)c2)C1=O (configuration not stated),T/C,[11],95 % of control
same,T/C,[12],90 % of control
CC(=O)OC1C(OC(C)=O)C2C(C)CC3OC(=O)C(C)C3CC2(C)C1OC(C)=O (configuration not stated),T/C,[9],111 % of control
same,T/C,[10],110 % of control
same,T/C,[6],106 % of control
COC(=O)C(N)CCCCNc1ccc2c(cc1=O)C(NC(C)=O)CCc1cc(OC)c(OC)c(OC)c1-2 (configuration not stated),T/C,"dose: 35.0 mg/kg/injection, schedule: Q01DX009 (ip), vehicle: saline",103 % of control
same,T/C,"dose: 53.0 mg/kg/injection, schedule: Q01DX009 (ip), vehicle: saline",106 % of control
same,T/C,[20],93 % of control
same,T/C,"dose: 120.0 mg/kg/injection, schedule: Q01DX009 (ip), vehicle: saline",88 % of control
same,T/C,"dose: 180.0 mg/kg/injection, schedule: Q01DX009 (ip), vehicle: saline",92 % of control
NC(N)=NC1=NC(=O)CS1,T/C,"dose: 50.0 mg/kg/injection, schedule: Q04DX003 (ip), vehicle: saline with Tween-80",102 % of control
same,T/C,[11],93 % of control
same,T/C,"dose: 100.0 mg/kg/injection, schedule: Q04DX003 (ip), vehicle: saline with Tween-80",102 % of control
same,T/C,[12],90 % of control
same,T/C,"dose: 200.0 mg/kg/injection, schedule: Q04DX003 (ip), vehicle: saline with Tween-80",100 % of control
NC(N)=N/N=C(/c1ccccc1)c1ccc(F)cc1,T/C,"dose: 20.0 mg/kg/injection, schedule: Q01DX009 (ip), vehicle: saline",110 % of control
same,T/C,"dose: 40.0 mg/kg/injection, schedule: Q01DX009 (ip), vehicle: saline",115 % of control
same,T/C,[20],102 % of control
CCN1C(=O)NC(=O)/C(=C/N(CCO)CCO)C1=O,T/C,[11],111 % of control
same,T/C,[12],107 % of control
same,T/C,[19],96 % of control
N=Cc1c(O)[nH]c(=O)[nH]c1=O,T/C,[16],87 % of control
same,T/C,[17],95 % of control
CCCCC[C@H](CN(C)C)[C@H](O)/C=C/c1ccc(Cl)cc1,T/C,[21],95 % of control
same,T/C,[22],100 % of control
same,T/C,[1],104 % of control
CCOc1ccc(C2NC(=O)c3ccccc3N2)cc1 (configuration not stated),T/C,[11],105 % of control
same,T/C,[12],98 % of control
same,T/C,[19],94 % of control
COc1ccc(CC2C(=O)NC(C)C(=O)N(C)C3Cc4ccc(cc4)Oc4cc(ccc4O)CC(C(=O)NC(C)C(=O)NC(C)C(=O)N2C)N(C)C3=O)cc1 (configuration not stated),T/C,"dose: 0.25 mg/kg/injection, schedule: Q01DX009 (ip), vehicle: saline with Tween-80",117 % of control
same,T/C,"dose: 0.5 mg/kg/injection, schedule: Q01DX009 (ip), vehicle: saline with Tween-80",122 % of control
same,T/C,"dose: 2.0 mg/kg/injection, schedule: Q01DX009 (ip), vehicle: saline with Tween-80",152 % of control
same,T/C,"dose: 4.0 mg/kg/injection, schedule: Q01DX009 (ip), vehicle: saline with Tween-80",175 % of control
same,T/C,"dose: 8.0 mg/kg/injection, schedule: Q01DX009 (ip), vehicle: saline with Tween-80",154 % of control
NCC(=O)c1ccc(O)c(O)c1,T/C,[3],100 % of control
same,T/C,"dose: 200.0 mg/kg/injection, schedule: Q01DX009 (ip), vehicle: saline",110 % of control
same,T/C,"dose: 400.0 mg/kg/injection, schedule: Q01DX009 (ip), vehicle: saline",120 % of control
Oc1ccc(O)cc1,T/C,"dose: 0.78 mg/kg/injection, schedule: Q01DX009 (ip), vehicle: saline",92 % of control
same,T/C,"dose: 1.56 mg/kg/injection, schedule: Q01DX009 (ip), vehicle: saline",89 % of control
same,T/C,[23],89 % of control
same,T/C,[1],89 % of control and 117 % of control
same,T/C,[2],96 % of control and 118 % of control
CNC(C)C1(O)Cc2c(O)c3c(c(O)c2C(OC2CC(N)C(O)C(C)O2)C1)C(=O)c1c(OC)cccc1C3=O (configuration not stated),T/C,"dose: 0.5 mg/kg/injection, schedule: Q01DX009 (ip), vehicle: water",108 % of control
same,T/C,"dose: 1.0 mg/kg/injection, schedule: Q01DX009 (ip), vehicle: water",112 % of control
same,T/C,"dose: 4.0 mg/kg/injection, schedule: Q01DX009 (ip), vehicle: water",163 % of control
same,T/C,"dose: 8.0 mg/kg/injection, schedule: Q01DX009 (ip), vehicle: water",172 % of control
Cc1ccc2c(ccc(/C=C/c3ccc(O)c4ncccc34)[n+]2C)c1,T/C,"dose: 12.5 mg/kg/injection, schedule: Q01DX009 (ip), vehicle: saline with Tween-80",113 % of control
same,T/C,[9],103 % of control
Cc1ccc2[nH]c(=O)oc(=O)c2c1,T/C,"dose: 50.0 mg/kg/injection, schedule: Q04DX003 (ip), vehicle: Klucel (hydroxypropylcellulose) (HPC)",98 % of control
same,T/C,[4],96 % of control
same,T/C,[5],93 % of control
O=C1NC(c2ccccc2)(c2ccccc2)C(=O)N1SC(Cl)(Cl)Cl,T/C,"dose: 3.12 mg/kg/injection, schedule: Q01DX009 (ip), vehicle: Klucel (hydroxypropylcellulose) (HPC)",106 % of control
same,T/C,[18],92 % of control
same,T/C,[13],103 % of control
same,T/C,[14],97 % of control
same,T/C,[15],91 % of control
Cc1cccc(C)c1NC(=O)c1ccc(Cl)cc1Cl,T/C,[11],92 % of control
COC(=O)C1C(O)C(C)C(=O)C(C)/C=C\C=C(C)C(=O)Nc2c(C)c(OC(C)=O)c3c(c2O)C(=O)C(C)=C2OCOC(=C23)C(C)=CC(C)(O)C(O)C(C)C1O (configuration not stated),T/C,[11],89 % of control
same,T/C,[12],89 % of control
CN(C)CCCN1c2ccccc2CCc2ccccc21,T/C,[23],95 % of control
same,T/C,[21],102 % of control
same,T/C,[22],104 % of control
same,T/C,[1],93 % of control
same,T/C,[2],104 % of control
CN(C)N=Nc1ccccc1,T/C,[18],120 % of control
same,T/C,[13],112 % of control and 123 % of control
same,T/C,[14],117 % of control
